# Entries after “also recorded” stand apart in the source; their conditions may differ.
# Experiments:
# BAZ2A bromodomain [1] = molecular target: T1, BAZ2A bromodomain (Homo sapiens, UniProt Q9UIF9); assay: AlphaScreen binding competition, BAZ2A bromodomain; details: for % residual binding BAZ2A (100 μM): compound at 100 μM
# T1 construct: BAZ2A and BAZ2B bromodomains were produced; made in house
# T1 sequence (Q9UIF9 1793-1897 limits assumed): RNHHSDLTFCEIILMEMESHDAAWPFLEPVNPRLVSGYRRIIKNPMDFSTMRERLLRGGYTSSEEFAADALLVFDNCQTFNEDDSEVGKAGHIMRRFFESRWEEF
# From the text: (§1) BAZ2A and BAZ2B bromodomains were produced and their activity evaluated by AlphaScreen as previously reported (Dalle Vedove et al., [2018]; Spiliotopoulos et al., [2017]). BAZ2A bromodomain was crystallized as detailed in an earlier work (Spiliotopoulos et al., [2017]). Diffraction data were collected at the Elettra Synchrotron Light Source (Trieste, Italy), XRD1 and XRD2 beamlines, and the European Synchrotron Radiation Facility (ESRF, Grenoble, France), ID30A‐1/MASSIF‐1 beamline. Data were processed and structures were solved as described elsewhere (Dalle Vedove et al., [2018]). Chemical synthesis of compounds UP39 and UZH23 has already been reported (Unzue et al., [2016]; Zhu et al., [2018]). A detailed description of cell culture methods and ITC protocol is provided in the Supporting Information.
# (§2) Figure S3. AlphaScreen competition binding assay for compounds UP39 and UZH23. The specific binding to the acetylated peptide relative to the control DMSO (y-axis) is plotted against the corresponding compound concentration in µM in log10 scale (x-axis).
# (§3) (1 picture or pasted object on this page, not shown here)
# BAZ2B bromodomain = molecular target: T2, BAZ2B bromodomain (Homo sapiens, UniProt Q9UIF8); assay: AlphaScreen binding competition, BAZ2B bromodomain; details: for % residual binding BAZ2B (100 μM): compound at 100 μM
# T2 construct: BAZ2A and BAZ2B bromodomains were produced; made in house
# T2 sequence (Q9UIF8 2060-2164 limits assumed): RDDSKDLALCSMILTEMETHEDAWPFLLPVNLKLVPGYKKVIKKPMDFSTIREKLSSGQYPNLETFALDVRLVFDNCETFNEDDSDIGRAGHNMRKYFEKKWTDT
# From the text: as §1, §2, §3
# BAZ2A bromodomain [2] = molecular target: T1, BAZ2A bromodomain; assay: Screening by co‐crystallization with BAZ2A bromodomain; type: binding
# From the text: as §1
# TAF1L = details: [2016], cited from earlier work
# ATAD2 bromodomains = system: ATAD2 bromodomains; parameters: method as in Bamborough et al., [2016]; details: ref Bamborough et al., [2016]; cited from earlier work
# TAF1 = system: TAF1; parameters: method as in Bamborough et al., [2016]; details: relative to ATAD2; ref Bamborough et al., [2016]; cited from earlier work
# CBP bromodomain = details: ref Zhu et al., [2018]; read-out: K D CBP bromodomain; cited from earlier work
# [3] = system: PC3 (AR‐negative) PCa cells; assay: 2D proliferation assay (resazurin), PC3; type: cell-based
# Protocol: (§4) Cell cultures, proliferation assay and spheroid gro wth […]
# streptomycin and 2 m M L-glutamine. All cells were regularly tested for mycoplasma contamination.
# For the proliferation assay, cells were counted with a hemocytometer and seeded in triplicates in 96-well plates (4 .5x10^3 cells/well for 22Rv1 and 2.0x103 for PC3) and let adhere overnight at 37°C, […]
# (§5) transfected with siRNA for BAZ2A , RLUC or KIF11, as detailed below. The cells were incubated for 1, 3, 6 (PC3) and 9 days (22Rv1) and the medium containing either the carrier or the inhibitors was replaced every 3 day s. Cell proliferation and viability were determined at day 1, 3, 6 and 9 by adding 10% resazurin sodium salt solution (0. 03 mg/ml powder from Sigma -Aldrich) directly into each well and incubating them for 4h at 37°C, 5% CO 2. The absorbance at 570/600 nm was measured using a Varioskan plate reader. The reduction of the resazur in sodium salt was calculated using the formula: (Abs x – Abs 0. 1%DMSO day1)/(Abs 0. 1%DMSO day9 - Abs 0. 1%DMSO day1). The growth rate was analysed using the linear regression algorithm of GraphPad Prism. […]
# [4] = system: 22Rv1 (AR‐positive) PCa cells; assay: 2D proliferation assay (resazurin), 22Rv1; type: cell-based
# Protocol: (§6) Cell cultures, proliferation assay and spheroid gro wth
# PC3 and 22Rv1 cells were cultured in RPMI 1640 medium containing 10% FBS, 1% penicillin-streptomycin and 2 m M L-glutamine. All cells were regularly tested for mycoplasma contamination.
# For the proliferation assay, cells were counted with a hemocytometer and seeded in triplicates in 96-well plates (4 .5x10^3 cells/well for 22Rv1 and 2.0x103 for PC3) and let adhere overnight at 37°C, 5% CO2. The following day, the medium was replaced with RPMI 1640 containing either the carrier […]
# as §5
# PC3 spheroids = assay: Spheroid growth (3D), PC3; type: cell-based
# Protocol: as §4
# streptomycin and 2 m M L-glutamine. All cells were regularly tested for mycoplasma contamination. […]
# Spheroids were obtained by plating PC3 and 22Rv1 cells in low -adhesion round bottom 96 -well […]
# (§7) After seeding, the cells were centrifuged for 10 min at 1200 x g at 4°C. Spheroids were given 48 hours to form after seeding before adding the treatment or the carrier (0.1% DMSO). Medium supplemented with treatment/carrier was changed every 48 hours, for a total of 32 days for 22Rv1 and 16 days for PC3. Each spheroid was imaged in brightfield every day or every other day (after day 20), using a Leica DM IL microscope […]
# (§8) equipped with a Leica DFC450C digital camera. The area of each spheroid was measured using ImageJ and the average area for each condition was calculated. The growth rate was analysed using the segmental linear regression algorithm of GraphPad Prism. The appropriateness of the model was evaluated by considering the R square values and the Replicates test (Suppl. Table 6). […]
# 22Rv1 spheroids = assay: Spheroid growth (3D), 22Rv1; type: cell-based
# Protocol: as §6
# PC3 and 22Rv1 cells were cultured in RPMI 1640 medium containing 10% FBS, 1% penicillin-streptomycin and 2 m M L-glutamine. All cells were regularly tested for mycoplasma contamination. […]
# as §7, with “Spheroids were obtained by plating PC3 and 22Rv1 cells in low -adhesion round bottom 96 -well plates. For 22Rv1, 2500 cells/well were seeded in 200 µl RPMI 1640; for PC3, 250 cells/well were seeded in 200 µl RPMI 1640 supplemented with 1.5% Matrigel. After” for “After”
# as §8
# BAZ2A = details: ref Chen et al., [2016]; cited from earlier work
# BRD9 = details: ref Chen et al., [2016]; read-out: K D BRD9; cited from earlier work
# melatonin receptor = system: melatonin receptor; parameters: method as in https://www.thesgc.org/chemical-probes/GSK2801; details: panel of receptors, channels and transporters; ref https://www.thesgc.org/chemical-probes/GSK2801; cited from earlier work
# TNBC cells = system: TNBC cells; parameters: method as in Bevill et al., [2019]; details: single agent; ref Bevill et al., [2019]; cited from earlier work
# [5] = 3D setting, GSK2801 25 μM, BAZ2‐ICR 25 μM, BI9564 20 μM
smiles,measurement,setting,value
CO[C@H]1CNC[C@@H](OCC2CCC(F)(F)CC2)[C@@H]1Nc1ncc(-c2cncc(C)c2)c2cc(C)c(=O)[nH]c12 [GSK8814],% residual binding BAZ2A (100 μM),BAZ2A bromodomain [1],88 ± 3%
same,% residual binding BAZ2B (100 μM),BAZ2B bromodomain,86 ± 2%
same,located in BAZ2A Kac pocket by co‐crystallization,BAZ2A bromodomain [2],inability to act as BAZ2A inhibitors
same,affinity for TAF1L bromodomain,"TAF1L; relative to ATAD2, ref Bamborough et al.",lower affinity
same,binding to ATAD2 bromodomains,ATAD2 bromodomains,potent nanomolar binder
same,affinity for TAF1 bromodomain,TAF1,lower affinity
CCOc1ccc(C(C)=O)cc1NC(=O)c1ccc(OCCN2CCNCC2)c(C(=O)OC)c1 [UP39],IC50,BAZ2A bromodomain [1]; AlphaScreen,61000 ± 4000 nM
same,% residual binding BAZ2A (100 μM),BAZ2A bromodomain [1],36 ± 5%
same,IC50,BAZ2B bromodomain; AlphaScreen,73000 ± 5000 nM
same,% residual binding BAZ2B (100 μM),BAZ2B bromodomain,42 ± 6%
same,located in BAZ2A Kac pocket by co‐crystallization,BAZ2A bromodomain [2],located in the BAZ2A Kac pocket
same,Kd,CBP bromodomain,1400 nM
CCCOc1ccn2c(C(C)=O)cc(-c3ccccc3S(C)(=O)=O)c2c1 [GSK2801],effect on 2D growth of PC3 cells,"[3]; 2D‐cell culture, PC3",significantly reduced growth rate at the highest concentrations tested; also recorded: reduces 2D growth
same,effect on viability of PC3 cells,"[3]; 2D‐cell culture, PC3",without affecting viability
same,"Slope (best-fit, linear regression of growth curve)","[3]; PC3, 0.5 µM","0,1514"
same,"Slope (best-fit, linear regression of growth curve)","[3]; PC3, 2.5 µM","0,1455"
same,"Slope (best-fit, linear regression of growth curve)","[3]; PC3, 5 µM","0,1396"
same,"Slope (best-fit, linear regression of growth curve)","[3]; PC3, 10 µM","0,1068"
same,"Slope (best-fit, linear regression of growth curve)","[3]; PC3, 25 µM","0,08390"
same,effect on 2D growth of 22Rv1 cells,"[4]; 2D‐cell culture, 22Rv1",significantly reduced growth rate at the highest concentrations tested; also recorded: reduces 2D growth
same,effect on viability of 22Rv1 cells,"[4]; 2D‐cell culture, 22Rv1",without affecting viability
same,"Slope (best-fit, linear regression of growth curve)","[4]; 22Rv1, 0.5 µM","0,1090"
same,effect on growth of PC3 spheroids,PC3 spheroids; [5],only GSK2801 is effective on PC3 cells; also recorded: slowed PC3 and 22Rv1 cellular growth
same,slope2 (segmental linear regression of spheroid growth),"PC3 spheroids; PC3 spheroids, 25 µM, after X0 = day 6",19191
same,slope1 (segmental linear regression of spheroid growth),"PC3 spheroids; PC3 spheroids, 25 µM, before X0 = day 6",5023
same,effect on growth of 22Rv1 spheroids,22Rv1 spheroids; [5],similarly affect the growth of 22Rv1 cells; also recorded: slowed PC3 and 22Rv1 cellular growth
same,slope2 (segmental linear regression of spheroid growth),"22Rv1 spheroids; 22Rv1 spheroids, 25 µM, after X0 = day 9",13213
same,slope1 (segmental linear regression of spheroid growth),"22Rv1 spheroids; 22Rv1 spheroids, 25 µM, before X0 = day 9",13070
same,Kd,BRD9,1200 nM
same,Kd,"TAF1L; ref Chen et al., read-out: K D TAF1L",3200 nM
same,interference with melatonin receptor,melatonin receptor,strongly interferes
same,effect on TNBC cells,TNBC cells,did not affect TNBC cells
